In paper PMC6669322, “Small Molecule Binding to Alzheimer Risk Factor CD33 Promotes Aβ Phagocytosis” (iScience, 2019):

How the values were obtained:
CD33 = system: CD33; set-up: method as in Blixt et al., 2003; conditions: order of magnitude in words; ref Blixt et al., 2003; cited from earlier work
[1] = system: human CD33-transfected BV2 cells; assay: Aβ42 phagocytosis assay (Aβ42 pHrodo uptake); type: cell-based, murine; conditions: cells pre-treated with millimolar concentration of the ligand, in words
Source text: (§1) Having shown that P22 binds specifically to the sialic acid-binding site of this domain we now have a chemical tool to answer the question of whether the sialic acid-binding site is the appropriate target for small molecule ligands that might promote Aβ uptake. Siglecs preferentially recognize multivalent presentation of their ligands ([Rillahan et al., 2014], [Büll et al., 2016]), and for this reason we conjugated the biotinylated form of P22 to microparticles labeled with both FITC and streptavidin (P22 microparticles) (see Transparent Methods). More than 60% CD33-transfected BV2 cells were positive for P22 microparticles compared with only 30% cells that were only incubated with control particles (unconjugated to P22) (Figure 4A). Although some P22 microparticles also bind to non-transfected cells, the difference remains significant for the cells transfected with CD33. This led us to believe that the compound bound preferentially to CD33 (Figure 4A). […]
(§2) Figure 4 Effect of P22 on Phagocytosis The cells were treated with P22 conjugated to microparticles labeled with both streptavidin and fluorescein isothiocyanate (FITC), or with microparticles without P22 conjugated as control. […] (C) Quantification of phagocytic differentiated human THP-1 cells after incubation with P22 monomer, P22 conjugated microparticles, or microparticles without P22 conjugation. […]

[2] = system: differentiated THP-1 cells; assay: THP-1 phagocytosis assay (pHrodo E. coli BioParticles), wild-type cells; type: cell-based, human; conditions: co-treatment, all treatment groups, in words
Source text: as §1, with “4A).” for “4A). Although some P22 microparticles also bind to non-transfected cells, the difference remains significant for the cells transfected with CD33. This led us to believe that the compound bound preferentially to CD33 (Figure 4A).”
as §2
THP-1 cells (control and CD33KO) were differentiated in growth media (RPMI 1640, 10% FCS) supplemented with 100 ng/mL PMA for 3 days. […] Differentiated cells were then lifted, counted and 75,000 cells/well were plated in a 96 well plate. […]

Structure (SMILES)	affinity for CD33 (CD33)	effect on phagocytosis [1]	effect of co-treatment on phagocytosis [2]
CC(=O)N[C@H]1[C@H]([C@H](O)[C@H](O)CO)O[C@@](O[C@H]2[C@@H](O)[C@@H](CO)O[C@@H](O[C@H]3[C@H](O)[C@@H](O)C(O)O[C@@H]3CO)[C@@H]2O)(C(=O)O)C[C@@H]1O (stereo partly drawn) [3′-sialyllactose]	millimolar	no difference	–
C=C1[C@@H](C)[C@H]2[C@H](Cc3ccccc3)NC(=O)[C@]23[C@H](OC(C)=O)/C=C/[C@@](C)(O)C(=O)[C@@H](C)C/C=C/[C@H]3[C@@H]1O [cytochalasin D]	–	–	blocked phagocytosis
